From patent publication US6410054B1, “Immediate release eplerenone compositions” (G. D. Searle & Co., priority 1998, dated 2002)

Test: Single dose study: urinary excretion of eplerenone and open lactone ring form
Format: in vivo, humans
Method: The study employed seven parallel dose groups of eight healthy male humans.
The plasma samples collected from subjects dosed with eplerenone were assayed for concentrations of eplerenone and the open lactone ring form of eplerenone. […] A subset of plasma samples was also assayed for testosterone levels. The urine collected was analyzed to determine concentrations and amounts of eplerenone and the open lactone ring form of eplerenone, the amount of sodium and potassium excreted, and the urinary log10 (sodium/potassium) ratio.

COC(=O)C1CC2=CC(=O)CCC2(C)C23OC2CC2(C)C(CC[C@@]24CCC(=O)O4)C13 (stereo partly drawn) [eplerenone, methyl hydrogen 9,11α-epoxy-17α-hydroxy-3-oxopregn-4-ene-7α,21-dicarboxylate, γ-lactone]
Amount of Eplerenone Excreted in Urine (10 mg dose, 0 to 2 hours): (21.6) mcg | Concentration of Eplerenone Excreted in Urine (10 mg dose, 0 to 2 hours): 278.0 ng/mL | Amount of Eplerenone Excreted in Urine (10 mg dose, 0 to 24 hours): (78.8) mcg | Amount of Eplerenone Excreted in Urine (10 mg dose, 2 to 4 hours): (35.8) mcg | Concentration of Eplerenone Excreted in Urine (10 mg dose, 2 to 4 hours): 191.1 ng/mL | Amount of Eplerenone Excreted in Urine (10 mg dose, 4 to 6 hours): (16.5) mcg | Concentration of Eplerenone Excreted in Urine (10 mg dose, 4 to 6 hours): 107.2 ng/mL | Amount of Eplerenone Excreted in Urine (10 mg dose, 6 to 8 hours): (7.6) mcg | Concentration of Eplerenone Excreted in Urine (10 mg dose, 6 to 8 hours): 63.8 ng/mL | Amount of Eplerenone Excreted in Urine (10 mg dose, 8 to 10 hours): (0) mcg | Concentration of Eplerenone Excreted in Urine (10 mg dose, 8 to 10 hours): 0 ng/mL | Amount of Eplerenone Excreted in Urine (10 mg dose, 10 to 12 hours): (0) mcg | Concentration of Eplerenone Excreted in Urine (10 mg dose, 10 to 12 hours): 0 ng/mL | Amount of Eplerenone Excreted in Urine (10 mg dose, 12 to 14 hours): (0) mcg | Concentration of Eplerenone Excreted in Urine (10 mg dose, 12 to 14 hours): 0 ng/mL | Amount of Eplerenone Excreted in Urine (10 mg dose, 14 to 16 hours): (0) mcg | Concentration of Eplerenone Excreted in Urine (10 mg dose, 14 to 16 hours): 0 ng/mL | Amount of Eplerenone Excreted in Urine (10 mg dose, 16 to 24 hours): (0) mcg | Concentration of Eplerenone Excreted in Urine (10 mg dose, 16 to 24 hours): 0 ng/mL | Amount of Eplerenone Excreted in Urine (10 mg dose, −9 to 0 hours): (0) mcg | Concentration of Eplerenone Excreted in Urine (10 mg dose, −9 to 0 hours): 0 ng/mL | Amount of Eplerenone Excreted in Urine (50 mg dose, 0 to 2 hours): (99.2) mcg | Concentration of Eplerenone Excreted in Urine (50 mg dose, 0 to 2 hours): 1252.2 ng/mL | Amount of Eplerenone Excreted in Urine (50 mg dose, 0 to 24 hours): (410.6) mcg | Amount of Eplerenone Excreted in Urine (50 mg dose, 2 to 4 hours): (175.3) mcg | Concentration of Eplerenone Excreted in Urine (50 mg dose, 2 to 4 hours): 1064.6 ng/mL | Amount of Eplerenone Excreted in Urine (50 mg dose, 4 to 6 hours): (60.6) mcg | Concentration of Eplerenone Excreted in Urine (50 mg dose, 4 to 6 hours): 518.3 ng/mL | Amount of Eplerenone Excreted in Urine (50 mg dose, 6 to 8 hours): (30.7) mcg | Concentration of Eplerenone Excreted in Urine (50 mg dose, 6 to 8 hours): 307.3 ng/mL | Amount of Eplerenone Excreted in Urine (50 mg dose, 8 to 10 hours): (27.6) mcg | Concentration of Eplerenone Excreted in Urine (50 mg dose, 8 to 10 hours): 172.4 ng/mL | Amount of Eplerenone Excreted in Urine (50 mg dose, 10 to 12 hours): (16.5) mcg | Concentration of Eplerenone Excreted in Urine (50 mg dose, 10 to 12 hours): 72.7 ng/mL | Amount of Eplerenone Excreted in Urine (50 mg dose, 12 to 14 hours): (11.3) mcg | Concentration of Eplerenone Excreted in Urine (50 mg dose, 12 to 14 hours): 23.1 ng/mL | Amount of Eplerenone Excreted in Urine (50 mg dose, 14 to 16 hours): (1.5) mcg | Concentration of Eplerenone Excreted in Urine (50 mg dose, 14 to 16 hours): 21.6 ng/mL | Amount of Eplerenone Excreted in Urine (50 mg dose, 16 to 24 hours): (4.0) mcg | Concentration of Eplerenone Excreted in Urine (50 mg dose, 16 to 24 hours): 13.1 ng/mL | Amount of Eplerenone Excreted in Urine (50 mg dose, −9 to 0 hours): (0) mcg | Concentration of Eplerenone Excreted in Urine (50 mg dose, −9 to 0 hours): 0 ng/mL | Amount of Eplerenone Excreted in Urine (100 mg dose, 0 to 2 hours): (360.2) mcg | Concentration of Eplerenone Excreted in Urine (100 mg dose, 0 to 2 hours): 2623.3 ng/mL | Amount of Eplerenone Excreted in Urine (100 mg dose, 0 to 24 hours): (1271.4) mcg | Amount of Eplerenone Excreted in Urine (100 mg dose, 2 to 4 hours): (407.6) mcg | Concentration of Eplerenone Excreted in Urine (100 mg dose, 2 to 4 hours): 2305.6 ng/mL | Amount of Eplerenone Excreted in Urine (100 mg dose, 4 to 6 hours): (285.1) mcg | Concentration of Eplerenone Excreted in Urine (100 mg dose, 4 to 6 hours): 1157.3 ng/mL | Amount of Eplerenone Excreted in Urine (100 mg dose, 6 to 8 hours): (158.8) mcg | Concentration of Eplerenone Excreted in Urine (100 mg dose, 6 to 8 hours): 627.6 ng/mL | Amount of Eplerenone Excreted in Urine (100 mg dose, 8 to 10 hours): (69.1) mcg | Concentration of Eplerenone Excreted in Urine (100 mg dose, 8 to 10 hours): 362.9 ng/mL | Amount of Eplerenone Excreted in Urine (100 mg dose, 10 to 12 hours): (44.7) mcg | Concentration of Eplerenone Excreted in Urine (100 mg dose, 10 to 12 hours): 146.6 ng/mL | Amount of Eplerenone Excreted in Urine (100 mg dose, 12 to 14 hours): (26.6) mcg | Concentration of Eplerenone Excreted in Urine (100 mg dose, 12 to 14 hours): 110.3 ng/mL | Amount of Eplerenone Excreted in Urine (100 mg dose, 14 to 16 hours): (6.6) mcg | Concentration of Eplerenone Excreted in Urine (100 mg dose, 14 to 16 hours): 36.5 ng/mL | Amount of Eplerenone Excreted in Urine (100 mg dose, 16 to 24 hours): (2.7) mcg | Concentration of Eplerenone Excreted in Urine (100 mg dose, 16 to 24 hours): 7.1 ng/mL | Amount of Eplerenone Excreted in Urine (100 mg dose, −9 to 0 hours): (0) mcg | Concentration of Eplerenone Excreted in Urine (100 mg dose, −9 to 0 hours): 0 ng/mL | Amount of Eplerenone Excreted in Urine (300 mg dose, 0 to 2 hours): (677.7) mcg | Concentration of Eplerenone Excreted in Urine (300 mg dose, 0 to 2 hours): 9370.1 ng/mL | Amount of Eplerenone Excreted in Urine (300 mg dose, 0 to 24 hours): (2872.3) mcg | Amount of Eplerenone Excreted in Urine (300 mg dose, 2 to 4 hours): (873.7) mcg | Concentration of Eplerenone Excreted in Urine (300 mg dose, 2 to 4 hours): 6465.9 ng/mL | Amount of Eplerenone Excreted in Urine (300 mg dose, 4 to 6 hours): (672.6) mcg | Concentration of Eplerenone Excreted in Urine (300 mg dose, 4 to 6 hours): 3865.2 ng/mL | Amount of Eplerenone Excreted in Urine (300 mg dose, 6 to 8 hours): (337.0) mcg | Concentration of Eplerenone Excreted in Urine (300 mg dose, 6 to 8 hours): 2237.8 ng/mL | Amount of Eplerenone Excreted in Urine (300 mg dose, 8 to 10 hours): (307.9) mcg | Concentration of Eplerenone Excreted in Urine (300 mg dose, 8 to 10 hours): 1208.6 ng/mL | Amount of Eplerenone Excreted in Urine (300 mg dose, 10 to 12 hours): (162.4) mcg | Concentration of Eplerenone Excreted in Urine (300 mg dose, 10 to 12 hours): 542.4 ng/mL | Amount of Eplerenone Excreted in Urine (300 mg dose, 12 to 14 hours): (97.4) mcg | Concentration of Eplerenone Excreted in Urine (300 mg dose, 12 to 14 hours): 419.6 ng/mL | Amount of Eplerenone Excreted in Urine (300 mg dose, 14 to 16 hours): (52.2) mcg | Concentration of Eplerenone Excreted in Urine (300 mg dose, 14 to 16 hours): 292.6 ng/mL | Amount of Eplerenone Excreted in Urine (300 mg dose, 16 to 24 hours): (50.4) mcg | Concentration of Eplerenone Excreted in Urine (300 mg dose, 16 to 24 hours): 126.4 ng/mL | Amount of Eplerenone Excreted in Urine (300 mg dose, −9 to 0 hours): (0) mcg | Concentration of Eplerenone Excreted in Urine (300 mg dose, −9 to 0 hours): 0 ng/mL | Amount of Eplerenone Excreted in Urine (1000 mg dose, 0 to 2 hours): (1482.0) mcg | Concentration of Eplerenone Excreted in Urine (1000 mg dose, 0 to 2 hours): 17858.6 ng/mL | Amount of Eplerenone Excreted in Urine (1000 mg dose, 0 to 24 hours): (17246.6) mcg | Amount of Eplerenone Excreted in Urine (1000 mg dose, 2 to 4 hours): (5983.3) mcg | Concentration of Eplerenone Excreted in Urine (1000 mg dose, 2 to 4 hours): 24460.3 ng/mL | Amount of Eplerenone Excreted in Urine (1000 mg dose, 4 to 6 hours): (4041.5) mcg | Concentration of Eplerenone Excreted in Urine (1000 mg dose, 4 to 6 hours): 13899.7 ng/mL | Amount of Eplerenone Excreted in Urine (1000 mg dose, 6 to 8 hours): (2083.0) mcg | Concentration of Eplerenone Excreted in Urine (1000 mg dose, 6 to 8 hours): 8782.1 ng/mL | Amount of Eplerenone Excreted in Urine (1000 mg dose, 8 to 10 hours): (1853.9) mcg | Concentration of Eplerenone Excreted in Urine (1000 mg dose, 8 to 10 hours): 4491.0 ng/mL | Amount of Eplerenone Excreted in Urine (1000 mg dose, 10 to 12 hours): (1177.2) mcg | Concentration of Eplerenone Excreted in Urine (1000 mg dose, 10 to 12 hours): 2361.1 ng/mL | Amount of Eplerenone Excreted in Urine (1000 mg dose, 12 to 14 hours): (892.8) mcg | Concentration of Eplerenone Excreted in Urine (1000 mg dose, 12 to 14 hours): 3183.7 ng/mL | Amount of Eplerenone Excreted in Urine (1000 mg dose, 14 to 16 hours): (340.5) mcg | Concentration of Eplerenone Excreted in Urine (1000 mg dose, 14 to 16 hours): 1405.2 ng/mL | Amount of Eplerenone Excreted in Urine (1000 mg dose, 16 to 24 hours): (366.0) mcg | Concentration of Eplerenone Excreted in Urine (1000 mg dose, 16 to 24 hours): 658.0 ng/mL | Amount of Eplerenone Excreted in Urine (1000 mg dose, −9 to 0 hours): (0) mcg | Concentration of Eplerenone Excreted in Urine (1000 mg dose, −9 to 0 hours): 0 ng/mL
